Paper PMC11845477, “Exploring the principles behind antibiotics with limited resistance” (Nature Communications, 2025)
Where a SMILES comes first, the peptide text is derived from it. Bridges are numbered along the chain shown (N, C = ends). [ ]: non-standard residue; d: D form. The star is where a group is joined. X1 = NC[C@@H](CC(=O)*)c1cccc(Cl)c1; Dab = NCC[C@H](N)C(=O)O; Dap = NC[C@H](N)C(=O)O

Key:
[1] = system: E. coli BW25113: pUCacrAB; assay: AcrAB-TolC efflux overexpression screen, relative MIC; type: cell-based, Escherichia coli; conditions: pUCacrAB vs empty pUC118 control
In short: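 Broth microdilution in MHB (supplemented MS for SCH79797), ten-step antibiotic dilutions, 5 × 10^5 cells/mL, 18 h at 37 °C with shaking; MIC is lowest concentration giving background-corrected OD600 < 0.05. Relative MIC as log2 ratio: ΔacrB vs wild-type; pUCacrAB vs empty pUC118 (plasmid strains under 100 µg/mL ampicillin). Mean of 3 biological replicates.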

[2] = system: A. baumannii ATCC 17978 (SEN) and A. baumannii ATCC BAA-1605 (MDR); assay: Adaptive laboratory evolution (ALE), relative MIC of evolved lines; type: cell-based, Acinetobacter baumannii
In short: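 Ten parallel populations per antibiotic–ancestor pair were evolved in MHB at 37 °C, starting near 50% growth-inhibiting drug. Every 72 h they were passaged into 0.5–2.5× increasing concentrations, keeping the highest-drug well with OD600 > 0.2.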

[3] = AB-MDR (Acinetobacter baumannii ATCC BAA 1605), evolved line 2
[4] = AB-SEN (Acinetobacter baumannii ATCC 17978), evolved line 1
[5] = AB-SEN (Acinetobacter baumannii ATCC 17978), evolved line 3
[6] = AB-SEN (Acinetobacter baumannii ATCC 17978), evolved line 5
[7] = AB-SEN (Acinetobacter baumannii ATCC 17978), evolved line 8
[8] = AB-SEN (Acinetobacter baumannii ATCC 17978), evolved line 9

CC(C)C[C@@H]1NC(=O)[C@@H](Cc2ccccc2)NC(=O)[C@H](CCN)NC(=O)[C@@H](NC(=O)[C@H](CN)NC(=O)[C@@H](NC(=O)C[C@H](CN)c2cccc(Cl)c2)[C@@H](C)O)CCNC(=O)[C@H]([C@@H](C)O)NC(=O)[C@H](CCN)NC(=O)[C@H](CCN)NC1=O [SPR206] (X1-T[Dap][Dab][Dab][dF]L[Dab][Dab]T; lactam 3-C (inferred); N-terminus assumed)
Relative MIC (log2) ([1]; replicate 1): 0 | Relative MIC (log2) ([1]; replicate 2): 0 | Relative MIC (log2) ([1]; replicate 3): 0 | Relative MIC ([2]; AB-MDR (ATCC BAA 1605), evolved line 1, evolved vs ancestor): 2048 | Relative MIC ([2]; AB-MDR (ATCC BAA 1605), evolved line 2, evolved vs ancestor): 8192 | Relative MIC ([2]; AB-MDR (ATCC BAA 1605), evolved line 3, evolved vs ancestor): 512 | Relative MIC ([2]; AB-MDR (ATCC BAA 1605), evolved line 4, evolved vs ancestor): 2048 | Relative MIC ([2]; AB-MDR (ATCC BAA 1605), evolved line 5, evolved vs ancestor): 8192 | Relative MIC ([2]; AB-MDR (ATCC BAA 1605), evolved line 6, evolved vs ancestor): 8192 | Relative MIC ([2]; AB-MDR (ATCC BAA 1605), evolved line 7, evolved vs ancestor): 8192 | Relative MIC ([2]; AB-MDR (ATCC BAA 1605), evolved line 8, evolved vs ancestor): 4096 | Relative MIC ([2]; AB-MDR (ATCC BAA 1605), evolved line 9, evolved vs ancestor): 8192 | Relative MIC ([2]; AB-MDR (ATCC BAA 1605), evolved line 10, evolved vs ancestor): 1024 | Relative MIC ([2]; AB-MDR (Acinetobacter baumannii ATCC BAA 1605), evolved line 1): 2048 | Relative MIC [2, 3]: 8192 | Relative MIC (log10) [2, 3]: 3.913 log10 | Relative MIC (log10) ([2]; AB-MDR (Acinetobacter baumannii ATCC BAA 1605), evolved line 5): 3.913 log10 | Relative MIC (log10) ([2]; AB-MDR (Acinetobacter baumannii ATCC BAA 1605), evolved line 6): 3.913 log10 | Relative MIC (log10) ([2]; AB-MDR (Acinetobacter baumannii ATCC BAA 1605), evolved line 7): 3.913 log10 | Relative MIC (log10) ([2]; AB-MDR (Acinetobacter baumannii ATCC BAA 1605), evolved line 9): 3.913 log10 | MIC of evolved line ([2]; AB-MDR ATCC BAA 1605, evolved line 1): 256 µg/mL | MIC of evolved line ([2]; AB-MDR ATCC BAA 1605, evolved line 2): 1020 µg/mL | MIC of evolved line ([2]; AB-MDR ATCC BAA 1605, evolved line 3): 64 µg/mL | MIC of evolved line ([2]; AB-MDR ATCC BAA 1605, evolved line 4): 256 µg/mL | MIC of evolved line ([2]; AB-MDR ATCC BAA 1605, evolved line 5): 1020 µg/mL | MIC of evolved line ([2]; AB-MDR ATCC BAA 1605, evolved line 6): 1020 µg/mL | MIC of evolved line ([2]; AB-MDR ATCC BAA 1605, evolved line 7): 1020 µg/mL | MIC of evolved line ([2]; AB-MDR ATCC BAA 1605, evolved line 8): 512 µg/mL | MIC of evolved line ([2]; AB-MDR ATCC BAA 1605, evolved line 9): 1020 µg/mL | MIC of evolved line ([2]; AB-MDR ATCC BAA 1605, evolved line 10): 128 µg/mL | MIC of evolved line ([2]; AB-SEN (A. baumannii ATCC 17978), evolved line 1 of the given antibiotic): 256 µg/mL | Relative MIC ([2]; AB-SEN (A. baumannii ATCC 17978), evolved line 1 vs ancestor): 2048 | MIC of evolved line ([2]; AB-SEN (A. baumannii ATCC 17978), evolved line 2 of the given antibiotic): 1020 µg/mL | Relative MIC ([2]; AB-SEN (A. baumannii ATCC 17978), evolved line 2 vs ancestor): 8192 | MIC of evolved line ([2]; AB-SEN (A. baumannii ATCC 17978), evolved line 3 of the given antibiotic): 64 µg/mL | Relative MIC ([2]; AB-SEN (A. baumannii ATCC 17978), evolved line 3 vs ancestor): 512 | MIC of evolved line ([2]; AB-SEN (A. baumannii ATCC 17978), evolved line 4 of the given antibiotic): 256 µg/mL | Relative MIC ([2]; AB-SEN (A. baumannii ATCC 17978), evolved line 4 vs ancestor): 2048 | MIC of evolved line ([2]; AB-SEN (A. baumannii ATCC 17978), evolved line 5 of the given antibiotic): 1020 µg/mL | Relative MIC ([2]; AB-SEN (A. baumannii ATCC 17978), evolved line 5 vs ancestor): 8192 | MIC of evolved line ([2]; AB-SEN (A. baumannii ATCC 17978), evolved line 6 of the given antibiotic): 1020 µg/mL | Relative MIC ([2]; AB-SEN (A. baumannii ATCC 17978), evolved line 6 vs ancestor): 8192 | MIC of evolved line ([2]; AB-SEN (A. baumannii ATCC 17978), evolved line 7 of the given antibiotic): 1020 µg/mL | Relative MIC ([2]; AB-SEN (A. baumannii ATCC 17978), evolved line 7 vs ancestor): 8192 | MIC of evolved line ([2]; AB-SEN (A. baumannii ATCC 17978), evolved line 8 of the given antibiotic): 512 µg/mL | Relative MIC ([2]; AB-SEN (A. baumannii ATCC 17978), evolved line 8 vs ancestor): 4096 | MIC of evolved line ([2]; AB-SEN (A. baumannii ATCC 17978), evolved line 9 of the given antibiotic): 1020 µg/mL | Relative MIC ([2]; AB-SEN (A. baumannii ATCC 17978), evolved line 9 vs ancestor): 8192 | MIC of evolved line ([2]; AB-SEN (ATCC 17978), evolved line 10): 128 µg/mL | Relative MIC ([2]; AB-SEN (ATCC 17978), evolved line 10, evolved vs ancestor): 1024 | Relative MIC [2, 4]: 2048 | Relative MIC (log10) [2, 4]: 3.311 log10 | Relative MIC ([2]; AB-SEN (Acinetobacter baumannii ATCC 17978), evolved line 2): 8192 | Relative MIC [2, 5]: 512 | Relative MIC (log10) [2, 5]: 2.709 log10 | Relative MIC ([2]; AB-SEN (Acinetobacter baumannii ATCC 17978), evolved line 4): 2048 | Relative MIC [2, 6]: 8192 | Relative MIC (log10) [2, 6]: 3.913 log10 | Relative MIC ([2]; AB-SEN (Acinetobacter baumannii ATCC 17978), evolved line 6): 8192 | Relative MIC [2, 7]: 4096 | Relative MIC (log10) [2, 7]: 3.612 log10 | Relative MIC [2, 8]: 8192 | Relative MIC (log10) [2, 8]: 3.913 log10 | Relative MIC ([2]; AB-SEN (Acinetobacter baumannii ATCC 17978), evolved line 10): 1024 | Relative MIC ([2]; AB-SEN, Acinetobacter baumannii ATCC 17978, evolved line 7): 8192 | Relative MIC ([2]; ALE, A. baumannii ATCC 17978 (AB-SEN), evolved line 1): 2048 | Relative MIC ([2]; ALE, A. baumannii ATCC 17978 (AB-SEN), evolved line 2): 8192 | Relative MIC ([2]; ALE, A. baumannii ATCC 17978 (AB-SEN), evolved line 3): 512 | Relative MIC ([2]; ALE, A. baumannii ATCC 17978 (AB-SEN), evolved line 4): 2048 | Relative MIC ([2]; ALE, A. baumannii ATCC 17978 (AB-SEN), evolved line 5): 8192 | Relative MIC ([2]; ALE, A. baumannii ATCC 17978 (AB-SEN), evolved line 6): 8192 | Relative MIC ([2]; ALE, A. baumannii ATCC 17978 (AB-SEN), evolved line 7): 8192 | Relative MIC ([2]; ALE, A. baumannii ATCC 17978 (AB-SEN), evolved line 8): 4096 | Relative MIC ([2]; ALE, A. baumannii ATCC 17978 (AB-SEN), evolved line 9): 8192 | Relative MIC ([2]; ALE, A. baumannii ATCC 17978 (AB-SEN), evolved line 10): 1024 | Relative MIC ([2]; ALE, A. baumannii ATCC BAA 1605 (AB-MDR), evolved line 1): 2048 | Relative MIC ([2]; ALE, A. baumannii ATCC BAA 1605 (AB-MDR), evolved line 2): 8192 | Relative MIC ([2]; ALE, A. baumannii ATCC BAA 1605 (AB-MDR), evolved line 3): 512 | Relative MIC ([2]; ALE, A. baumannii ATCC BAA 1605 (AB-MDR), evolved line 4): 2048 | Relative MIC ([2]; ALE, A. baumannii ATCC BAA 1605 (AB-MDR), evolved line 5): 8192 | Relative MIC ([2]; ALE, A. baumannii ATCC BAA 1605 (AB-MDR), evolved line 6): 8192 | Relative MIC ([2]; ALE, A. baumannii ATCC BAA 1605 (AB-MDR), evolved line 7): 8192 | Relative MIC ([2]; ALE, A. baumannii ATCC BAA 1605 (AB-MDR), evolved line 8): 4096 | Relative MIC ([2]; ALE, A. baumannii ATCC BAA 1605 (AB-MDR), evolved line 9): 8192 | Relative MIC ([2]; ALE, A. baumannii ATCC BAA 1605 (AB-MDR), evolved line 10): 1024 | Relative MIC ([2]; Acinetobacter baumannii ATCC 17978 (AB-SEN), evolved line 1): 2048 | Relative MIC ([2]; Acinetobacter baumannii ATCC 17978 (AB-SEN), evolved line 2): 8192 | Relative MIC ([2]; Acinetobacter baumannii ATCC 17978 (AB-SEN), evolved line 3): 512 | Relative MIC ([2]; Acinetobacter baumannii ATCC 17978 (AB-SEN), evolved line 4): 2048 | Relative MIC ([2]; Acinetobacter baumannii ATCC 17978 (AB-SEN), evolved line 5): 8192 | Relative MIC ([2]; Acinetobacter baumannii ATCC 17978 (AB-SEN), evolved line 6): 8192 | Relative MIC ([2]; Acinetobacter baumannii ATCC 17978 (AB-SEN), evolved line 7): 8192 | Relative MIC ([2]; Acinetobacter baumannii ATCC 17978 (AB-SEN), evolved line 8): 4096 | Relative MIC ([2]; Acinetobacter baumannii ATCC 17978 (AB-SEN), evolved line 9): 8192 | Relative MIC ([2]; Acinetobacter baumannii ATCC 17978 (AB-SEN), evolved line 10): 1024 | Relative MIC ([2]; Acinetobacter baumannii ATCC BAA 1605 (AB-MDR), evolved line 2): 8192 | Relative MIC ([2]; Acinetobacter baumannii ATCC BAA 1605 (AB-MDR), evolved line 4): 2048 | Relative MIC ([2]; Acinetobacter baumannii ATCC BAA 1605 (AB-MDR), evolved line 5): 8192 | Relative MIC ([2]; Acinetobacter baumannii ATCC BAA 1605 (AB-MDR), evolved line 6): 8192 | Relative MIC ([2]; Acinetobacter baumannii ATCC BAA 1605 (AB-MDR), evolved line 7): 8192 | Relative MIC ([2]; Acinetobacter baumannii ATCC BAA 1605 (AB-MDR), evolved line 8): 4096 | Relative MIC ([2]; Acinetobacter baumannii ATCC BAA 1605 (AB-MDR), evolved line 9): 8192 | Relative MIC ([2]; Acinetobacter baumannii ATCC BAA 1605 (AB-MDR), evolved line 10): 1024 | Relative MIC ([2]; Acinetobacter baumannii ATCC BAA 1605 (AB-MDR), evolved line 1): 2048 | Relative MIC ([2]; Acinetobacter baumannii ATCC BAA 1605 (AB-MDR), evolved line 3): 512
